Target: T1, ERRα ligand binding domain (ERRα-LBD) (Homo sapiens, UniProt P11474)
T1 construct: made in house; host or cells: E. coli
T1 sequence (P11474 193-421 limits assumed): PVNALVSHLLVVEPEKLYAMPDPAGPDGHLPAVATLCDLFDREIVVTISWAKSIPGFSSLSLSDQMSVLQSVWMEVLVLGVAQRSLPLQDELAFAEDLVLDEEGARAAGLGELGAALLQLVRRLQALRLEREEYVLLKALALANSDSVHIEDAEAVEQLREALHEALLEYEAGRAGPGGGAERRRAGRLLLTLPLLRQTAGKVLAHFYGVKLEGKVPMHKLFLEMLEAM
Experiment: ERRα AlphaScreen Assay
Type: biochemical
Conditions: disruption of binding of ERRα-LBD protein to biotin-PGC1α-3 co-activator peptide; read-out: mean pIC50 (converted)
Text: This assay was based on the knowledge that nuclear receptors interact with cofactors in a ligand dependent matter. The sites of interaction have been mapped to LXXLL motifs that are present in the co-activator sequences. Short peptide sequences that contain the LXXLL motif mimic the behavior of full length co-activators.
The ERRα AlphaScreen Assay described here relies on the interaction of the co-activator peptide with purified bacterial- expressed ERRα ligand binding domain (ERRα-LBD); upon ligand binding, the ERRα protein can undergo a conformational change resulting in a loss of co-activator binding.
Compounds of the present invention were tested for their ability to disrupt binding of ERRα-LBD protein to co-activator peptide using AlphaScreen® Technology (Perkin Elmer). ERRα-LBD protein was expressed in E. coli as a 6×His Small Ubiquitin-like Modifier (SUMO) fusion. Bacterial expressed 6His-SUMO-ERRα-LBD protein was purified using affinity chromatography. All experiments were performed at room temperature in 384-well white non-binding plates (Greiner) using 50 mM Tris-HCl pH 7.5, 100 mM NaCl, 0.1% Pluronic F-127, 0.05% BSA and 5 mM TCEP as the buffer. Final DMSO concentration was 1% in the assay. Compounds were assayed in triplicate and: incubated with 0.81 nM ERRα-LBD protein and 10 μg/mL streptavidin donor beads and 10 μg/mL Ni-chelate acceptor beads for 1 hour at room temperature; followed by a 2-hour incubation with 15 nM biotin-PGC1α-3 peptide (QRRPCSELLKYLTTNDDPP) corresponding to amino acids 202 to 220.
The AlphaScreen signal was measured using an Envision Xcite plate reader (Perkin Elmer). Data was normalized, and curve fitting analysis was performed in GraphPad Prism 7 using a four-parameter dose-response fit.

| SMILES | IC50 [nM] |
| --- | --- |
| Cc1cc(C2CC(=O)Nc3n[nH]cc32)ccc1Oc1ccc(C#N)cc1C(C)(C)C (stereo not drawn) [Example 55, 3-tert-butyl-4-(2-methyl-4-{6-oxo-2H,4H,5H,6H,7H-pyrazolo[3,4-b]pyridin-4-yl}phenoxy)benzonitrile] | 10 to 100 |
| COc1cc(C2CC(=O)Nc3n[nH]cc32)ccc1Oc1cccc(C(F)(F)F)c1 (stereo not drawn) [Example 6, 4-{3-methoxy-4-[3-(trifluoromethyl)phenoxy]phenyl}-2H,4H,5H,6H,7H-pyrazolo[3,4-b]pyridin-6-one] | 100 to 1000 |
| O=C1CC(c2ccc(Oc3ccccc3S(F)(F)(F)(F)F)cc2)c2c[nH]nc2N1 (stereo not drawn) [Example 59, 4-{4-[2-(pentafluoro-λ^6-sulfanyl)phenoxy]phenyl}-2H,4H,5H,6H,7H-pyrazolo[3,4-b]pyridin-6-one] | 100 to 1000 |
| COc1cc(C2CC(=O)Nc3n[nH]cc32)ccc1Oc1cc(C(F)F)cc(C(F)(F)F)c1 (single isomer, unassigned; (+)) [Example 85, (+)-4-{4-[3-(difluoromethyl)-5-(trifluoromethyl)phenoxy]-3-methoxyphenyl}-2H,4H,5H,6H,7H-pyrazolo[3,4-b]pyridin-6-one] | 100 to 1000 |
| COc1cc(C2CC(=O)Nc3n[nH]cc32)ccc1Oc1cc(C)cc(C(F)(F)F)c1 (single isomer, unassigned; (+)) [Example 83, (+)-4-{3-methoxy-4-[3-methyl-5-(trifluoromethyl)phenoxy]phenyl}-2H,4H,5H,6H,7H-pyrazolo[3,4-b]pyridin-6-one] | 100 to 1000 |
| COc1cc(C2CC(=O)Nc3n[nH]cc32)ccc1Oc1cc(Br)cc(C(F)(F)F)c1 (stereo not drawn) [Example 42, 4-{4-[3-bromo-5-(trifluoromethyl)phenoxy]-3-methoxyphenyl}-2H,4H,5H,6H,7H-pyrazolo[3,4-b]pyridin-6-one] | 10 to 100 |
| COc1cc(C2CC(=O)Nc3n[nH]cc32)ccc1Oc1cc(C(F)(F)F)cc(C(F)(F)F)c1 (single isomer, unassigned; (+)) [Example 79, (+)-4-{4-[3,5-bis(trifluoromethyl)phenoxy]-3-methoxyphenyl}-2H,4H,5H,6H,7H-pyrazolo[3,4-b]pyridin-6-one] | 100 to 1000 |
| COc1cc(C2CC(=O)Nc3n[nH]cc32)ccc1Oc1cccc(C)c1 (stereo not drawn) [Example 1, 4-[3-methoxy-4-(3-methylphenoxy)phenyl]-2H,4H,5H,6H, 7H-pyrazolo[3,4-b]pyridin-6-one] | 100 to 1000 |
| COc1cc(C2CC(=O)Nc3n[nH]cc32)ccc1Oc1cc(C)cc(C)c1 (single isomer, unassigned; (+)) [Example 81, (+)-4-[4-(3,5-dimethylphenoxy)-3-methoxyphenyl]-2H,4H,5H,6H,7H-pyrazolo[3,4-b]pyridin-6-one] | 100 to 1000 |
| COc1cc(C2CC(=O)Nc3n[nH]cc32)ccc1Oc1ccccc1-c1ccccc1 (stereo not drawn) [Example 24, 4-[3-methoxy-4-(2-phenylphenoxy)phenyl]-2H,4H,5H,6H,7H-pyrazolo[3,4-b]pyridin-6-one] | 100 to 1000 |
| COc1cc(Oc2ccc(C3CC(=O)Nc4n[nH]cc43)cc2)cc(C(F)(F)F)c1 (stereo not drawn) [Example 54, 4-{4-[3-methoxy-5-(trifluoromethyl)phenoxy]phenyl}-2H,4H,5H,6H,7H-pyrazolo[3,4-b]pyridin-6-one] | 10 to 100 |
| COc1cc(C2CC(=O)Nc3n[nH]cc32)ccc1Oc1ccc2c(c1)CCC2 (stereo not drawn) [Example 49, 4-[4-(2,3-dihydro-1H-inden-5-yloxy)-3-methoxyphenyl]-2H, 4H, 5H, 6H,7H-pyrazolo[3,4-b]pyridin-6-one] | 100 to 1000 |
| O=C1CC(c2ccc(Oc3ccccc3S(F)(F)(F)(F)F)c(OC(F)(F)F)c2)c2c[nH]nc2N1 (stereo not drawn) [Example 58, 4-{4-[2-(pentafluoro-λ^6-sulfanyl)phenoxy]-3-(trifluoromethoxy)phenyl}-2H,4H,5H,6H,7H-pyrazolo[3,4-b]pyridin-6-one] | 10 to 100 |
| COc1cc(C2CC(=O)Nc3n[nH]cc32)ccc1Oc1cccc(C(C)(C)C)c1 (stereo not drawn) [Example 15, 4-[4-(3-tert-butylphenoxy)-3-methoxyphenyl]-2H,4H,5H,6H,7H-pyrazolo[3,4-b]pyridin-6-one] | 10 to 100 |
| CCCc1ccccc1Oc1ccc(C2CC(=O)Nc3n[nH]cc32)cc1OC (stereo not drawn) [Example 22, 4-[3-methoxy-4-(2-propylphenoxy)phenyl]-2H,4H,5H,6H,7H-pyrazolo[3,4-b]pyridin-6-one] | 100 to 1000 |
| CCc1ccccc1Oc1ccc(C2CC(=O)Nc3n[nH]cc32)cc1OC (stereo not drawn) [Example 20, 4-[4-(2-ethylphenoxy)-3-methoxyphenyl]-2H,4H,5H,6H,7H-pyrazolo[3,4-b]pyridin-6-one] | 100 to 1000 |
| COc1cc(C2CC(=O)Nc3n[nH]cc32)ccc1Oc1ccccc1C1CC1 (stereo not drawn) [Example 28, 4-[4-(2-cyclopropylphenoxy)-3-methoxyphenyl]-2H,4H,5H,6H,7H-pyrazolo[3,4-b]pyridin-6-one] | 10 to 100 |
| COc1cc(C2CC(=O)Nc3n[nH]cc32)ccc1Oc1ccccc1Cc1ccccc1 (stereo not drawn) [Example 26, 4-[4-(2-benzylphenoxy)-3-methoxyphenyl]-2H,4H,5H,6H,7H-pyrazolo[3,4-b]pyridin-6-one] | 100 to 1000 |
| COc1cc(C2CC(=O)Nc3n[nH]cc32)ccc1Oc1ccccc1C1CCCC1 (stereo not drawn) [Example 25, 4-[4-(2-cyclopentylphenoxy)-3-methoxyphenyl]-2H,4H,5H,6H,7H-pyrazolo[3,4-b]pyridin-6-one] | 100 to 1000 |
| COc1cc(-c2cc(=O)[nH]c3n[nH]cc23)ccc1Oc1ccc(C#N)cc1C(F)(F)F [Example 71, 4-(2-methoxy-4-{6-oxo-2H,6H,7H-pyrazolo[3,4-b]pyridin-4-yl}phenoxy)-3-(trifluoromethyl)benzonitrile] | 100 to 1000 |
| COc1cc(C2CC(=O)Nc3n[nH]cc32)ccc1Oc1ccc(C(F)(F)F)cc1C (stereo not drawn) [Example 65, 4-{3-methoxy-4-[2-methyl-4-(trifluoromethyl)phenoxy]phenyl}-2H,4H,5H,6H,7H-pyrazolo[3,4-b]pyridin-6-one] | 100 to 1000 |

From patent publication US20240150342A1, “ESTROGEN-RELATED RECEPTOR ALPHA MODULATORS” (LEAD PHARMA HOLDING B.V., priority 2019, published 2024)
